The results in this text go back to patent US10342804B2, “Steroid compound for use in the treatment of hepatic encephalopathy” (Umecrine Cognition AB, priority 2014, dated 2019).

Structures are written as SMILES.

For one experiment, the system named is PCS rats. As to the kind of experiment: Morris water maze memory test, PCS rats (Example 9). In kind it is in vivo, rat. The protocol:
Male Wistar rats (220-240 g) were anesthetized with isoflurane, and an end-to side porta-caval anastomosis was performed as described by Lee and Fisher (Surgery, 1961, 50, 668-672).
Rats that were subjected to the porta-caval anastomosis procedure are herein referred to as “PCS rats”.
3α-ethynyl-3β-hydroxyandrostan-17-one oxime in sesame oil was administered by subcutaneous injections in the back of the rats, once daily. Two different sets of experiments were performed in hyperammonemic rats. In the first set four groups of rats were used: 1) control rats injected with vehicle; 2) hyperammonemic rats injected with vehicle; 3) control rats injected with 20 mg/Kg of 3α-ethynyl-3β-hydroxyandrostan-17-one oxime and 4) hyperammonemic rats injected with 20 mg/Kg of 3α-ethynyl-3β-hydroxyandrostan-17-one oxime. […]
The test was carried out as described by Monfort et al. (European Journal of Neuroscience, 2007, 25, 2103-2111) using a circular pool (160 cm diameter, 40 cm height) arbitrarily divided into four quadrants. […] The time needed to find the hidden platform was recorded manually and used as a measure of learning of the task.
Spatial memory was assessed 24 hours later by removing the platform and measuring the time spent by the rat in the quadrant where the platform was.

Experiment [1] concerns the target T1, human α5β3γ2L GABAA receptors (Homo sapiens, UniProt P28472+P31644).
T1 construct: expressed in transfected cells; host or cells: HEK-293, permanently transfected
As to the kind of experiment: Whole-cell voltage-clamp electrophysiology, HEK-293 cells expressing α5β3γ2L GABAA receptors. The format is cell-based. The settings on record: for GAMSA effect: α5β3γ2L, 1 μM GAMSA, 0.3 μM GABA, AUC. Here is the method: For electrophysiology measurements the Dynaflow® system with the Resolve chip was used (Cellectricon, Göteborg, Sweden). HEK-293 cells were permanently transfected with vectors including the human CMV promoter for constitutive expression of the human α5, β3, and γ2L GABAA receptor subunits (α5β3γ2L) or the human α1, β2, and γ2L GABAA receptor subunits (α1β2γ2L). The cell lines used were selected for good reactivity to GABA and to THDOC. Before measurements cells were incubated for 15 min at 37° C. in 95% air+5% CO2 in extracellular solution (EC) containing the following: 137 mM NaCl, 5.0 mM KCl, 1.0 mM CaCl2, 1.2 mM MgCl2, 10 mM HEPES, and 10 mM glucose, 0.1% DMSO pH 7.4. Thereafter, detached cells were added to the EC solution in the Dynaflow chip bath.
Whole-cell voltage-clamp recordings were made at room temperature (21-23° C., −17 mV with compensation for liquid junction potential as in Haage et al., 2002; Neher, 1992). Command pulses were generate and data collected by PClamp 9.0 software, DigiData 1322A converter, and AxonPatch 200B (Axon Instruments, Foster City, Calif.). Patch electrodes (2-6 MΩ) were filled with intracellular solution (IC) including: 140 mM Cs-gluconate, 3.0 mM NaCl, 1.2 mM MgCl2, 10 mM HEPES, 1.0 mM EGTA, 2 mM Mg-ATP, 0.1% DMSO, pH 7.2.
THDOC and 3α-ethynyl-3β-hydroxyandrostan-17-one oxime were dissolved in dimethyl sulfoxide (DMSO) and thereafter diluted with EC solution to include 0.1% DMSO.
Different protocols were used for different electrophysiology measurements. As α1β2γ2L-GABAA receptors in vivo are present within the synapse a condition resembling that situation, a short application (40 ms) of a high GABA concentration (30 μM), was used. Contrary, α5β3γ2L-GABAA receptors are present extrasynaptically, thus the conditions used were long exposures (6 s) to a low GABA concentration (0.3 μM). The EC75 concentration of THDOC was used, i.e. 100 nM with studies of α1β2γ2L and 200 nM when α5β3γ2L expressing cells were evaluated. With both cell types a pre-exposure with THDOC or THDOC plus 3α-ethynyl-3β-hydroxyandrostan-17-one oxime was used before application of GABA.
Steroid effects in presence of GABA were normalized to controls in order to avoid the effects of inter- and intracellular variation in the measured parameters, each cell was used as its own control and the area under the curve (AUC) was analyzed.

T1 sequence (P31644 32-462): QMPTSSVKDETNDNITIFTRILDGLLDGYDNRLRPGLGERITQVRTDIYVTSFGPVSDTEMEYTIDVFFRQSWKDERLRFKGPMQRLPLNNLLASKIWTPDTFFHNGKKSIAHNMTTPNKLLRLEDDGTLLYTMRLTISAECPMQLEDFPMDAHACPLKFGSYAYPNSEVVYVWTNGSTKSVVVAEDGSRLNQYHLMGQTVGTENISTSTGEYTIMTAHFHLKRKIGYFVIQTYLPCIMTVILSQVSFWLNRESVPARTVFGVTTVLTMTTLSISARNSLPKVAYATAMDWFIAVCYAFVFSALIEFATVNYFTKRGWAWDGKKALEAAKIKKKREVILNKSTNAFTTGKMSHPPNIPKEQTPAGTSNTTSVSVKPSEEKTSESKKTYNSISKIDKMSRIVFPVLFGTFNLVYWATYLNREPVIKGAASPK
T1 sequence (P28472 26-473): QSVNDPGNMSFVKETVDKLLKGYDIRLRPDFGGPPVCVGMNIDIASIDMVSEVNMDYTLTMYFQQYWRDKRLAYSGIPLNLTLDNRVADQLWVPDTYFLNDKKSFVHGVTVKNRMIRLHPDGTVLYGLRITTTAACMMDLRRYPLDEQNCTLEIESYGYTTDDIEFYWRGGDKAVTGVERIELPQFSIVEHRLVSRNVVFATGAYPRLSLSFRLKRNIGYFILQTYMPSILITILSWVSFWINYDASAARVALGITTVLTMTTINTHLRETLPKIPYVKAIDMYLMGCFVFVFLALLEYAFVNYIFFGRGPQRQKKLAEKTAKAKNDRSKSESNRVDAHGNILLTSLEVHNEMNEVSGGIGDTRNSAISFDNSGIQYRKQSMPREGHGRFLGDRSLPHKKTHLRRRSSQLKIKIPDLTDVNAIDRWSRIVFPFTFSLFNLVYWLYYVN
T1 sequence (P18507 40-475 partner): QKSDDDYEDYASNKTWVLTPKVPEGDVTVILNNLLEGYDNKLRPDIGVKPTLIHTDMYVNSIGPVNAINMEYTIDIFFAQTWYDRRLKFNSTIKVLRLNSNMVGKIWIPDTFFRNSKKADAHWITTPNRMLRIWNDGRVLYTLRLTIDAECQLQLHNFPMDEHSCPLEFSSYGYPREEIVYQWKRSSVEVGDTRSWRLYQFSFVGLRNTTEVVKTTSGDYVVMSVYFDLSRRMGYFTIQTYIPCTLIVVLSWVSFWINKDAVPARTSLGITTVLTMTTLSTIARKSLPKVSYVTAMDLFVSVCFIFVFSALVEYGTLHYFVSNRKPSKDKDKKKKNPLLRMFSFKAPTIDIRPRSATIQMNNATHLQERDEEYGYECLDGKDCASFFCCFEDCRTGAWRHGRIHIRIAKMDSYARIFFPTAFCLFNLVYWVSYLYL

The inhibition is the percentage by which the read-out fell short of the control. As to `C#C[C@]1(O)CC[C@@]2(C)C(CC[C@@H]3[C@@H]2CC[C@]2(C)/C(=N\O)CC[C@@H]32)C1` (stereo partly drawn) [3α-ethynyl-3β-hydroxyandrostan-17-one oxime], the “Percentage of time spent in the correct quadrant, Morris water maze memory test” value with PCS rats (0.7 mg/kg) is on record as 34±4%; in the experiment on PCS rats (2.5 mg/kg) it was 39±3%. The inhibition at 1 µM in experiment [1] (HEK293, read-out: Inhibition of the THDOC enhancement of GABA) was 49 ± 4.7%. The GAMSA effect is recorded as −49 ± 4.7% in experiment [1] (200 nM THDOC); −3.8±1.5% in experiment [1] (no THDOC (GABA sole activator)); −3.8 ± 1.5% in experiment [1] (no THDOC (GABA sole activator), listed as GAMSA).
